Assay results taken from patent US10865191B2, “Heterocyclic compounds useful as modulators of TNF alpha” (BRISTOL-MYERS SQUIBB COMPANY, priority 2015, dated 2020).

target: TNFα (Homo sapiens, UniProt P01375); experiment: TNF induced HEK-Blue assay (NF-kB-driven secreted alkaline phosphatase reporter); assay type: cell-based; details: TNFα 0.5 ng/mL, HEK-Blue-CD40L cells, 18 h; read-out: TNF induced HEK-Blue assay IC50 value
Procedure, shortened: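 HEK-Blue-CD40L cells (NF-kB-driven SEAP reporter), 20,000/well, added after 30 min pre-incubation of compound (0.004–25 μM final) with TNFα 0.5 ng/mL final at 37 °C; 18 h incubation. SEAP read with QUANTI-Blue at 620 nm; IC50 from 4-parameter logistic fit, normalized to unstimulated and stimulated DMSO controls.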

TNFα, sequence (P01375 77-233 limits assumed): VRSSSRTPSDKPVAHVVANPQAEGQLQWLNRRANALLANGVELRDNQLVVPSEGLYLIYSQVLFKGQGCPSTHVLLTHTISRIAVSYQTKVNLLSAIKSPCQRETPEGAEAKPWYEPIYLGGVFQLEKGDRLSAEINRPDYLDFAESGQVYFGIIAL

Row | SMILES | IC50
1 | CC[C@H](Nc1c(Cl)cnc2ccccc12)c1cc(-c2cncnc2)ccc1F [Example 557, (S)-3-chloro-N-(1-(2-fluoro-5-(pyrimidin-5-yl)phenyl)propyl)quinolin-4-amine] | 1000 to 10000 nM
2 | COc1ccc(F)c([C@@H](C)Nc2c(Cl)cnc3ccccc23)c1 [Example 451, (R)-3-chloro-N-(1-(2-fluoro-5-methoxyphenyl)ethyl)quinolin-4-amine] | 1000 to 10000 nM
3 | CN(Cc1c(Cl)cnc2ccc(-c3cnc(C(C)(C)O)nc3)cc12)c1ccccc1F [Example 67, 2-(5-(3-chloro-4-(((2-fluorophenyl)(methyl)amino)methyl)quinolin-6-yl)pyrimidin-2-yl)propan-2-ol] | 1000 to 10000 nM
4 | CC(Nc1c(Cl)cnc2cc(F)c(-c3cnc(N4CCC(C(=O)O)CC4)nc3)cc12)c1ccccc1F (single isomer, unassigned) [Example 244, 1-(5-(3-chloro-7-fluoro-4-((1-(2-fluorophenyl)ethyl)amino)quinolin-6-yl)pyrimidin-2-yl)piperidine-4-carboxylic acid] | < 1000 nM
5 | Cc1nc2ccc(-c3cnc(N4CCN(CC(=O)O)CC4)nc3)cc2c(N[C@H](C)c2cc(-c3cn[nH]c3)ccc2F)c1Cl [Example 342, (R)-2-(4-(5-(3-chloro-4-((1-(2-fluoro-5-(1H-pyrazol-4-yl)phenyl)ethyl)amino)-2-methylquinolin-6-yl)pyrimidin-2-yl)piperazin-1-yl)acetic acid] | < 1000 nM
6 | C[C@H](Nc1c(Cl)cnc2ccc(-c3cnc(C(C)(C)O)nc3)cc12)[C@H]1CCCN(S(C)(=O)=O)C1 [Example 563, 2-(5-(3-chloro-4-(((S)-1-((S)-1-(methylsulfonyl)piperidin-3-yl)ethyl)amino)quinolin-6-yl)pyrimidin-2-yl)propan-2-ol] | 1000 to 10000 nM
7 | CC(Nc1c(Cl)cnc2cc(F)c(-c3ccc(C(O)CN4CCOCC4)cc3)cc12)c1ccccc1F (centres unmarked) [Example 277, 1-(4-(3-chloro-7-fluoro-4-((1-(2-fluorophenyl)ethyl)amino)quinolin-6-yl)phenyl)-2-morpholinoethan-1-ol] | < 1000 nM
8 | COc1ncc(-c2ccc(F)c([C@@H](C)Nc3c(Cl)cnc4ccccc34)c2)cc1C#N [Example 520, (R)-5-(3-(1-((3-chloroquinolin-4-yl)amino)ethyl)-4-fluorophenyl)-2-methoxynicotinonitrile] | < 1000 nM
9 | Cc1nc2cc(F)c(-c3cnc(C(C)(C)O)nc3)nc2c(N[C@H](C)c2cccc(CO)c2)c1Cl [Example 578, (R)-2-(5-(7-chloro-3-fluoro-8-((1-(3-(hydroxymethyl)phenyl)ethyl)amino)-6-methyl-1,5-naphthyridin-2-yl)pyrimidin-2-yl) propan-2-ol] | < 1000 nM
10 | CCOC(=O)c1nc2ccc(-c3cnc(C(C)(C)O)nc3)cc2c(N[C@H](C)c2cc(C#N)ccc2F)c1Cl [Example 384, ethyl (R)-3-chloro-4-((1-(5-cyano-2-fluorophenyl)ethyl)amino)-6-(2-(2-hydroxypropan-2-yl)pyrimidin-5-yl)quinoline-2-carboxylate] | 1000 to 10000 nM
11 | O=C(O)CN1CCN(c2ccc(-c3ccc4ncc(Cl)c(N[C@@H](c5ccccc5F)C(F)F)c4c3)cc2)CC1 [Example 16, (S)-2-(4-(4-(3-chloro-4-((2,2-difluoro-1-(2-fluorophenyl)ethyl)amino)quinolin-6-yl)phenyl)piperazin-1-yl)acetic acid] | < 1000 nM
12 | CNC(=O)c1ccc(-c2ccc3nc(C)c(Cl)c(Nc4cc(C)ccc4C)c3c2)cn1 [Example 8, 5-(3-chloro-4-((2,5-dimethylphenyl)amino)-2-methylquinolin-6-yl)-N-methylpicolinamide] | < 1000 nM
13 | CC(=O)NC(C)(C)c1ccc(-c2ccc3ncc(Cl)c(NC(C)c4ccccc4F)c3c2)cc1 (centres unmarked) [Example 592, N-(2-(4-(3-chloro-4-((1-(2-fluorophenyl)ethyl)amino)quinolin-6-yl)phenyl)propan-2-yl)acetamide] | 1000 to 10000 nM
14 | CC(Nc1c(Cl)cnc2ccc(-c3cnc(C(C)(C)O)nc3)cc12)C1(c2ccc(Cl)cc2)CCCC1 (racemic) [Example 142, 2-(5-(3-chloro-4-((1-(1-(4-chlorophenyl)cyclopentyl)ethyl)amino)quinolin-6-yl)pyrimidin-2-yl)propan-2-ol] | 10000 to 25000 nM
15 | C[C@@H](Nc1c(Cl)cnc2ccc(-c3ccc(C4(NCCO)CCC4)cc3)cc12)c1ccccc1F [Example 568, (R)-2-((1-(4-(3-chloro-4-((1-(2-fluorophenyl)ethyl)amino)quinolin-6-yl)phenyl)cyclobutyl)amino)ethan-1-ol] | < 1000 nM
16 | O=C(O)CN1CCN(c2ncc(-c3ccc4ncc(Cl)c(N[C@@H](c5ccccc5F)C(F)F)c4c3)cn2)CC1 [Example 92, (S)-2-(4-(5-(3-chloro-4-((2,2-difluoro-1-(2-fluorophenyl)ethyl)amino)quinolin-6-yl)pyrimidin-2-yl)piperazin-1-yl)acetic acid] | < 1000 nM
17 | C[C@@H](Nc1c(Cl)cnc2ccccc12)c1cc(-c2cncc(C(=O)N3CCOCC3)c2)ccc1F [Example 551, (R)-(5-(3-(1-((3-chloroquinolin-4-yl)amino)ethyl)-4-fluorophenyl)pyridin-3-yl)(morpholino)methanone] | 1000 to 10000 nM
18 | CC(CC(O)(c1ccccc1)c1ccccc1)Nc1c(Cl)cnc2ccc(-c3cnc(C(C)(C)O)nc3)cc12 (racemic) [Example 143, 3-((3-chloro-6-(2-(2-hydroxypropan-2-yl)pyrimidin-5-yl)quinolin-4-yl)amino)-1,1-diphenylbutan-1-ol] | 10000 to 25000 nM
19 | Cc1c(-c2ccc(F)c([C@@H](C)Nc3c(Cl)cnc4ccccc34)c2)cnn1C [Example 474, (R)-3-chloro-N-(1-(5-(1,5-dimethyl-1H-pyrazol-4-yl)-2-fluorophenyl)ethyl)quinolin-4-amine] | < 1000 nM
20 | C[C@@H](Nc1c(Cl)cnc2ccc(-c3cnc(C(C)(C)O)nc3)cc12)c1cc(C(O)CO)ccc1F (mixture of isomers) [Example 398, 1-(3-((R)-1-((3-chloro-6-(2-(2-hydroxypropan-2-yl)pyrimidin-5-yl)quinolin-4-yl)amino)ethyl)-4-fluorophenyl)ethane-1,2-diol] | < 1000 nM
21 | CC(C)(O)c1ncc(-c2cc3c(NC4(c5ccccc5F)CC4)c(Cl)cnc3cc2F)cn1 [Example 278, 2-(5-(3-chloro-7-fluoro-4-((1-(2-fluorophenyl)cyclopropyl)amino)quinolin-6-yl)pyrimidin-2-yl)propan-2-ol] | < 1000 nM
22 | C[C@@H](Nc1c(Cl)cnc2ccccc12)c1cc(-c2cnc(N3CCOCC3)nc2)ccc1F [Example 467, (R)-3-chloro-N-(1-(2-fluoro-5-(2-morpholinopyrimidin-5-yl)phenyl)ethyl)quinolin-4-amine] | 1000 to 10000 nM

Second part, the compound after the results:

Row | IC50 | SMILES
23 | < 1000 nM | CC(Nc1c(Cl)cnc2ccc(-c3ccc(C(C)(C)O)cc3)cc12)c1cncn1C (racemic) [Example 210, 2-(4-(3-chloro-4-((1-(1-methyl-1H-imidazol-5-yl)ethyl)amino)quinolin-6-yl)phenyl)propan-2-ol]
24 | < 1000 nM | Cc1nc2ccc(-c3cnc(C(C)(C)O)nc3)cc2c(N[C@@H](c2cc(C(N)CO)ccc2F)C(F)F)c1Cl (mixture of isomers) [Example 434, 2-(5-(4-(((1 S)-1-(5-(1-amino-2-hydroxyethyl)-2-fluorophenyl)-2,2-difluoroethyl)amino)-3-chloro-2-methylquinolin-6-yl)pyrimidin-2-yl)propan-2-ol]
25 | < 1000 nM | CC(Nc1c(Cl)cnc2cc(F)c(-c3cnc(C(O)CN4CCOCC4)cn3)cc12)c1ccccc1F (centres unmarked) [Example 275, 1-(5-(3-chloro-7-fluoro-4-((1-(2-fluorophenyl)ethyl)amino)quinolin-6-yl)pyrazin-2-yl)-2-morpholinoethan-1-ol]
26 | < 1000 nM | Cc1ccc(F)c([C@@H](C)Nc2c(Cl)c(C)nc3ccc(-c4cnc(C(C)(C)O)nc4)cc23)c1 [Example 334, (R)-2-(5-(3-chloro-4-((1-(2-fluoro-5-methylphenyl)ethyl)amino)-2-methylquinolin-6-yl)pyrimidin-2-yl)propan-2-ol]
27 | < 1000 nM | CC(Nc1c(Cl)cnc2ccc(-c3cnc(C(C)(C)O)nc3)cc12)c1ccccc1Cl (racemic) [Example 153, 2-(5-(3-chloro-4-((1-(2-chlorophenyl)ethyl)amino)quinolin-6-yl)pyrimidin-2-yl)propan-2-ol]
28 | < 1000 nM | CC(Nc1c(Cl)cnc2cc(F)c(-c3cnc(N4CCN(C(=O)[C@H](N)CC(=O)O)CC4)nc3)cc12)c1ccccc1F (single isomer, unassigned) [Example 607]
29 | < 1000 nM | C[C@@H](Nc1c(Cl)cnc2ccc(-c3ccc(C4(N)CCC4)cc3)cc12)c1ccccc1F [Example 118, (R)-6-(4-(1-aminocyclobutyl)phenyl)-3-chloro-N-(1-(2-fluorophenyl)ethyl)quinolin-4-amine]
30 | < 1000 nM | Cc1nc2cc(F)c(-c3cnc(C(C)(C)O)nc3)nc2c(N[C@H](C)c2cccc(C(O)CO)c2)c1Cl (stereo partly drawn) [Example 575, 1-(3-((R)-1-((3-chloro-7-fluoro-6-(2-(2-hydroxypropan-2-yl)pyrimidin-5-yl)-2-methyl-1,5-naphthyridin-4-yl)amino)ethyl)phenyl)ethane-1,2-diol]
31 | < 1000 nM | Cc1nc2ccc(-c3cnc(N4CCS(=O)(=O)CC4)nc3)cc2c(NC(C)c2ccccc2F)c1Cl (racemic) [Example 310, 4-(5-(3-chloro-4-((1-(2-fluorophenyl)ethyl)amino)-2-methylquinolin-6-yl)pyrimidin-2-yl)thiomorpholine 1,1-dioxide]
32 | < 1000 nM | Cc1nc2c(F)cc(-c3cnc(C(C)(C)O)nc3)cc2c(N[C@H](C)c2cc(C#N)ccc2F)c1Cl [Example 302, (R)-3-(1-((3-chloro-8-fluoro-6-(2-(2-hydroxypropan-2-yl)pyrimidin-5-yl)-2-methylquinolin-4-yl)amino)ethyl)-4-fluorobenzonitrile]
